Measured values from US5981517A, “Androstene derivatives” (priority 1997, dated 1999).

How the values were obtained:
[1] = system: thymi; parameters: species or system male Sprague-Dawley rats; settings: rat, in vivo, sc
Procedure: Several further studies were undertaken to determine the effects of a selected compound of the invention and prior art steroids on thymi weights in rats when the drugs were systemically administered. In each of these studies, male Sprague-Dawley rats were used. The test compounds were suspended in 0.5% CMC (carboxymethylcellulose) and injected subcutaneously once daily for three days. On the fifth day (48 hours following the last treatment), the animals were sacrificed and the thymi weights were recorded. Body weight gains were measured 24 hours after the last treatment. From the test results, the TED40 's (thymolytic effective doses, that is, doses required to achieve 40% inhibition of thymi weight) and relative potencies of a representative compound of the invention and reference steroids were calculated. […] It is evident that the higher the inhibition of thymus activity at a given dose, the more toxic the compound is.

[2] = system: right ear of each mouse (croton oil challenge); assay: Ear edema test (croton oil, mice); format: in vivo; settings: 6 h after croton oil challenge
Procedure: In treatment groups of mice, selected amounts of the test compound were dissolved in acetone containing 5% croton oil; then, 50 microliters of the solution were applied to the inner surface of the right ear of each mouse. A control group of mice was identically treated with vehicle only, i.e., 5% croton oil in acetone. Six hours after croton oil challenge, the thickness of each ear was measured.

[3] = system: granulation tissue (granuloma); format: in vivo, rat
Procedure: The test compound was dissolved in acetone and aliquots of varying concentrations were injected into cotton pellets. The pellets were dried and then one pellet was implanted beneath the skin of each test rat. Six days later, the animals were sacrificed and the granulation tissue (granuloma) which formed in and around the implanted pellet was removed, dried and weighed. In addition, the thymi and adrenals were removed and weighed. The ability of a compound to inhibit granuloma formation in this test is a direct indication of local anti-inflammatory activity; thus, the lower the weight of granulation tissue, the better the anti-inflammatory activity.

[4] = system: skin; assay: Skin weight test, 10 days of topical treatment in the rat; format: in vivo, Male Sprague-Dawley rats; settings: rat, in vivo
Procedure: Male Sprague-Dawley rats, weighing about 210 g, were lightly anesthetized with ether, shaved and marked in three areas on each flank with intradermally injected blue ink. […] Treated control animals received daily topical administration of the vehicle (DMF) alone. Solvent and test compound solutions (10 μL) were applied once daily for 10 consecutive days, with […] necessary. On the eleventh day, the animals were sacrificed, their skins were removed and 16 mm diameter plugs were punched out from each area. The plugs were scraped carefully to remove subcutaneous fat and muscle, then they were blotted on filter paper and weighed. Skin atrophy is a known side effect associated with topically applied anti-inflammatory steroids.

[5] = system: granuloma / thymolysis; assay: Comparison of local effect and systemic side-effects (therapeutic index); format: in vivo, rat; settings: granuloma relative potency / thymolysis relative potency
Procedure: The test compound was dissolved in acetone and aliquots of varying concentrations were injected into cotton pellets. The pellets were dried and then one pellet was implanted beneath the skin of each test rat. Six days later, the animals were sacrificed and the granulation tissue (granuloma) which formed in and around the implanted pellet was removed, dried and weighed. In addition, the thymi and adrenals were removed and weighed.
Several further studies were undertaken to determine the effects of a selected compound of the invention and prior art steroids on thymi weights in rats when the drugs were systemically administered. In each of these studies, male Sprague-Dawley rats were used. The test compounds were suspended in 0.5% CMC (carboxymethylcellulose) and injected subcutaneously once daily for three days. On the fifth day (48 hours following the last treatment), the animals were sacrificed and the thymi weights were recorded. Body weight gains were measured 24 hours after the last treatment.
The ED50 's calculated for the local cotton pellet granuloma assay and the TED40 's calculated on the basis of thymus inhibition testing as described above were used to arrive at relative potency and a therapeutic index for a representative species of the invention as compared to prior art steroids.

SMILES | Thymolysis, Relative Potency at ED40 Level (b) [1] | inhibition of swelling ([2]; 10 μg/mL) [%] | inhibition of swelling ([2]; 100 μg/mL) [%] | local anti-inflammatory activity (inhibition of granuloma formation) ([3]; cotton pellet, 6 days) | systemic effect ([3]; rat, in vivo) | Wet skin weight, Treated, Decrease [4] [%] | Wet skin weight, Untreated, Decrease [4] [%] | Therapeutic Index (a/b) [5]
COC(=O)[C@@]1(OC(=O)C(Cl)Cl)[C@H](C)C[C@H]2[C@@H]3CCC4=CC(=O)C=C[C@]4(C)[C@@]3(F)[C@@H](O)C[C@@]21C [Compound I, methyl 17α-dichloroacetoxy-9α-fluoro-11β-hydroxy-16α-methylandrosta-1,4-dien-3-one-17β-carboxylate] | 156 | 37.4 | 92.1 | significant local anti-inflammatory activity | relatively much lower systemic effect | 11.6 | 11.2 | 7.10
CCCCC(=O)O[C@]1(C(=O)CO)[C@@H](C)C[C@H]2[C@@H]3CCC4=CC(=O)C=C[C@]4(C)[C@@]3(F)[C@@H](O)C[C@@]21C [Betamethasone 17-valerate, reference compound] | 100 |  |  |  |  |  |  | 1.0
